Laboratory results as given in patent publication US20120003183A1, “ADDITION SALTS OF TROMETHAMINE WITH AZABIPHENYLAMINOBENZOIC ACID DERIVATIVES AS DHODH INHIBITORS” (priority 2009, published 2012).
Where a name gives a salt, the structure may show the parent alone.

Columns and labels:
Type in all cases: physicochemical
Water-solubility test = details: for Water Solubility @ 25° C. (mg/mL as acid): 25° C. (room temperature)
Procedure: The solubility of the of Examples 1-3 in water at room temperature was determined together with the solubility of the corresponding free acids.

[1] = Differential scanning calorimetry (DSC) thermogram, stability; details: heated 30 to 350° C. at 10° C./min; result in words
Procedure: The differential scanning calorimetry (DSC) thermograms analyses were obtained using a DSC-821 Mettler-Toledo instrument, serial number 5117423874. Samples were weighed into an aluminium pan, an aluminium lid placed on top of the sample and compressed with a brass rod. Samples were equilibrated at 30° C. and heated at 10° C./min to 350° C. The instrument was calibrated using indium and zinc standards.

[2] = Dynamic Vapour Sorption (DVS) moisture sorption/desorption; details: for Mass increase at 80% relative humidity (DVS): 80% RH; for Mass increase at 90% relative humidity (DVS): 90% RH; for Hygroscopicity / Hysteresis in DVS sorption/desorption: result in words
Procedure: Dynamic Vapour Sorption (DVS) profiles were obtained using an Igasorp Hiden Isochema instrument (serial number IGA-SA-066). After an initial stabilization period, at least two isotherms (at 25° C.) were obtained for each sample: a moisture sorption from 0 to 95% relative humidity and moisture desorption from 95% relative humidity to dryness. Both isotherms were performed in 10% humidity steps, with a minimum time of 10 minutes and a maximum time of 30 minutes for each step.

SMILES	Solubility in water compared with the corresponding free acids (Water-solubility test; result in words)	Water Solubility @ 25° C. (mg/mL as acid) (Water-solubility test)	Stability (polymorph conversion / decomposition) from DSC thermogram [1]	Mass increase at 80% relative humidity (DVS) ([2]; 25° C.)	Mass increase at 90% relative humidity (DVS) ([2]; 25° C.)	Hygroscopicity [2]	Hysteresis in DVS sorption/desorption [2]	Mass increase at 95% relative humidity (DVS) ([2]; 95% RH, 25° C.)
O=C(O)c1cc(C2CC2)ccc1Nc1cnc(-c2c(F)cccc2F)nc1 [Example 1, 5-cyclopropyl-2-{[2-(2,6-difluorophenyl)pyrimidin-5-yl]amino}benzoic acid, tromethamine salt]	Particularly good results	1.780 mg/mL as acid	high stability	1.2%	6.1%	not hygroscopic	no hysteresis	–
O=C(O)c1cc(C2CC2)ccc1Nc1cnc(-c2ccccc2C(F)(F)F)nc1 [Example 2, 5-cyclopropyl-2-{[2-(2-(trifluoromethyl)phenyl)pyrimidin-5-yl]amino}benzoic acid, tromethamine salt]	–	0.139 mg/mL as acid	high stability	3.4%	–	slightly hygroscopic	no hysteresis	7.0%
Cc1ccc(Nc2ccc(-c3cccc(F)c3F)nc2)c(C(=O)O)c1 [Example 3, 5-methyl-2-{[6-(2,3-difluorophenyl)pyridin-3-yl]amino}benzoic acid, tromethamine salt]	–	0.540 mg/mL as acid	high stability	1.8%	5.1%	not hygroscopic	no hysteresis	–
O=C(O)c1cc(C2CC2)ccc1Nc1cnc(-c2c(F)cccc2F)nc1 [Example C1, 5-cyclopropyl-2-{[2-(2,6-difluorophenyl)pyrimidin-5-yl]amino}benzoic acid, reference compound]	–	0.030 mg/mL as acid	–	–	–	–	–	–
O=C(O)c1cc(C2CC2)ccc1Nc1cnc(-c2ccccc2C(F)(F)F)nc1 [Example C2, 5-cyclopropyl-2-{[2-(2-(trifluoromethyl)phenyl)pyrimidin-5-yl]amino}benzoic acid, reference compound]	–	0.003 mg/mL as acid	–	–	–	–	–	–
Cc1ccc(Nc2ccc(-c3cccc(F)c3F)nc2)c(C(=O)O)c1 [Example C3, 5-methyl-2-{[6-(2,3-difluorophenyl)pyridin-3-yl]amino}benzoic acid, reference compound]	–	0.007 mg/mL as acid	–	–	–	–	–	–
